# Measurements: patent US20100221823A1, “METHOD FOR CULTURING MAMMALIAN CELLS TO IMPROVE RECOMBINANT PROTEIN PRODUCTION” (Amgen Inc., priority 2007, published 2010)
# Experiments:
# [1] = tested on: four different recombinant monoclonal IgG2 antibody-producing CHO cell lines; conditions: fed-batch, 10 μM spermine
# Method: The medium was an enriched formulation of DMEM/F12 medium (ingredients supplied by SAFC, Lenexa, Kans.). The medium contained putrescine at a concentration of 0.014 mM. […] Cells were maintained in suspension culture for 11 days at 36° C., 5% CO2. Cultures were fed an enriched feed medium on the fourth, seventh, and ninth days of culture. The feed volume was equal to nine percent of the initial batch culture volume. […] Glucose was also fed on the fourth, seventh, and ninth days of culture in order to prevent depletion. Viable cell density and cell viability were measured as described above.
# The titer of the antibodies produced in cell culture was determined using POROS® (Applied Biosystems) Protein A chromotagraphy HPLC chromotagraphy.
# [2] = tested on: CHO cell line producing a recombinant IgG2 monoclonal antibody; conditions: 6 days, VM-Soy
# Method: VM-Soy basal media contains 0.98 μM (0.1620 mg/l) putrescine as a component of its formulation. […] Cells were seeded at 2.5×10^5 cells/ml and maintained for six days at 36° C. in 5% CO2. Viable cell density and cell viability were measured as described above.
# Antibody titer was measured by immunoturbidietric analysis using a Poly-Chem® analyzer and High Sensitivity IgG reagents (Polymedco, Cortlandt Manor, N.Y.) according to the manufacturer's instructions.
# [3] = tested on: Human-human hybridoma HB4C5 cells; conditions: spermine 2.4 mM or higher; increased over the control; cited from earlier work
# [4] = tested on: CHO cell line producing a recombinant IgG1 monoclonal antibody; conditions: fed-batch
# Method: The medium was an enriched formulation of DMEM/F12 that was less concentrated than the media used in Example 3. The medium already contained putrescine at 0.014 mM. […] Cells were maintained in suspension culture for 8 days at 36° C., 5% CO2. Cultures were fed a rich medium on the fourth day of culture. […] The feed volume was equal to seven percent of the initial batch culture volume. The feed medium contained putrescine and delivered 0.0019 mM putrescine to the cultures as a result of each feed. Glucose was also fed on the fourth day of culture in order to prevent depletion. Viable cell density and cell viability were measured as described above.
# Antibody titer was measured by immunoturbidimetric analysis using a Poly-Chem® analyzer and High Sensitivity IgG reagents (Polymedco, Cortlandt Manor, N.Y.) according to the manufacturer's instructions.
# [5] = tested on: CHO cell line producing a recombinant IgG2 monoclonal antibody; assay: Batch culture in serum-free DMEM/F12 with supplemental polyamines: viable cell density and viability; type: cell-based, Chinese hamster; conditions: 3 days; for Culture viability versus cells without supplemental polyamines (FIG. 1b) / Viable cell density versus basal DMEM/F12 media (FIG. 1a): supplemental polyamine
# Method: To test the effect of high concentration polyamine media formulations on cell culture performance a CHO cell line producing a recombinant IgG2 monoclonal antibody was seeded at 2.5×10^5 cells/ml in serum-free DMEM/F12 (SAFC, Lenexa, Kans.). DMEM/F12 contains 503 nM putrescine as a component of the commercial formulation. […] Cells were maintained in suspension culture for three days at 36° C. in 5% CO2. Total cell density and viable cell density were measured using a Guava Easy-Cyte™ flow cytometer and Guava Viacount® Flex reagent (Hayward, Calif.) according to manufacture's instructions.
# Following three days culture in the polyamine-supplemented-DMEM/F12 media, viable cell density and culture viability were measured, see FIGS. 1a and 1b. Mean viability is presented as percent of viable cells and viable cell density is presented as number of cells/ml.
smiles,measurement,setting,value
"Cl.Cl.Cl.Cl.NCCCNCCCCNCCCN [spermine, spermine tetrahydrochloride]",Antibody titer increase compared to the untreated controls (FIG. 3c),[1]; range over four cell lines,7-17%
same,Cell viability versus control without spermine (FIG. 3b),[1]; 11 days,largely unaffected
same,Viable cell density versus control without spermine (FIG. 3a),[1]; 11 days,greater
same,Spermine concentration giving the greatest increase in antibody concentration (FIG. 2c),[2],50 µM
same,Spermine concentration giving the greatest increase in viable cell density (FIG. 2a),[2],50 µM
same,Antibody titer increase (greatest),[2]; 50 μM spermine,9%
same,Cell viability increase (greatest),[2]; 50 μM spermine,29%
same,Viable cell density increase (greatest),[2]; 50 μM spermine,23%
same,Antibody titer increase compared to the untreated control,[2]; 10-200 μM spermine,5-9%
same,Cell viability increase compared to the unsupplemented control,[2]; 10-200 μM spermine,22-29%
same,Viable cell density increase compared to the unsupplemented control,[2]; 10-200 μM spermine,8-23%
same,Protein production,[3],less than 1 mg/l
same,Effect of spermine concentration on titer,[4]; 0.1-500 μM spermine,dose-dependent response
same,Viable cell density versus control (FIGS. 4a and 4b),"[4]; 8 days, 0.1-500 μM spermine",greater
same,Antibody titer increase compared to the untreated controls (FIG. 4d),"[4]; Day 8, 0.1-500 μM spermine",7-17%
same,Ending cell viability (FIG. 4c),"[4]; Day 8, 5-50 μM spermine",increased
same,Spermine concentration giving the greatest increase in cell viability (FIG. 1b),[5]; DMEM/F12,50 µM
same,Cell viability increase compared to unsupplemented control media,"[5]; DMEM/F12, 10-50 μM spermine",up to 20%
same,Viable cell density increase compared to unsupplemented control media,"[5]; DMEM/F12, 10-50 μM spermine",up to 49%
same,Culture viability versus cells without supplemental polyamines (FIG. 1b),[5],higher
same,Viable cell density versus basal DMEM/F12 media (FIG. 1a),[5],higher
"Cl.Cl.NCCCCN [putrescine, putrescine dihydrochloride]",Culture viability versus cells without supplemental polyamines (FIG. 1b),[5],higher
same,Viable cell density versus basal DMEM/F12 media (FIG. 1a),[5],higher
"NCCCCNCCCN [spermidine, spermidine tetrachdrochloride]",Culture viability versus cells without supplemental polyamines (FIG. 1b),[5],higher
same,Viable cell density versus basal DMEM/F12 media (FIG. 1a),[5],higher
